According to patent US10072017B2, “Compounds and methods for the treatment of cystic fibrosis” (Flatley Discovery Lab, LLC, priority 2015, dated 2018):

Target: T1, CFTR (Homo sapiens, UniProt P13569, DEL508-508)
T1 construct: Primary CF airway epithelial cells were obtained from the UNC Cystic Fibrosis Tissue Procurement and Cell Culture Core; host or cells: primary CF airway epithelial cells
Assay: Equivalent current assay in Primary CF airway epithelial cells (NAUC)
Format: cell-based
Settings: 24 h, normalized to VX809 (3 μM) positive control; for Nauc @ 3 μM: 3 μM test compound; for Nauc @ 10 μM: 10 μM test compound
Experimental: Primary CF airway epithelial cells were obtained from the UNC Cystic Fibrosis Tissue Procurement and Cell Culture Core. The cells are grown at 37° C. in a Heracell 150i incubator using growth media (BEGM, Fischer). Cells were then transferred to differentiation media (ALI, UNC) for a minimum of 4 weeks on coated Costar snapwells. Two days before the Ussing assay the mucus on the apical surface of the cells was aspirated after incubating with 200 μL of differentiation Media for at least thirty (30) minutes. One day before the Ussing assay test compounds were added to the basolateral surface of the cells at various test concentrations dissolved in DMSO. Duplicate wells were prepared giving a n=3 or n=4 protocol.
Cells were treated for 24 hours with various combinations and concentrations of the test articles, reference standard (3 μM VX809, positive control). Compounds stock solutions were prepared in DMSO and diluted 1/1000 into ALI media to their final assay concentration. Cells were treated with combination solutions (2 mL of each dilution) and incubated at 37° C. for 24 h.
For the equivalent current assay, cells on four Transwell (24-well) plates were treated. Each Transwell plate was filled with 200 μl of HBS on the apical surface and 2 ml on the basolateral surface. Plates were placed horizontally in a heated mount at 37° C., and equilibrated for several minutes. Resting current was measured for 15 min and then blocked by the apical addition of 5 μM benzamil. After 20 min, 10 μM forskolin and 1 μM VX770 were added to both the apical and basolateral side to stimulate CFTR. An increase in chloride current is seen as an upward deflection of the trace. After another 30 min, CFTR-172 (a CFTR inhibitor, 20 μM) and/or bumetanide (20 uM) was added to block CFTR mediated chloride current.
The raw data, current vs. time for the Ussing chamber (sampling interval: 10 s) and voltage vs. time and resistance vs. time for the equivalent current assay (sampling interval: 5 minutes) were transferred to Excel (Microsoft Office Professional, version 14.0.7106.5003) for analysis. CFTR specific current was measured as the average amplitude of the increase in current elicited upon addition forskolin and ending upon addition of the CFTR channel specific blocker CFTR-172. This average is equivalent to the sum of the average forskolin activated and the average VX770-potentiated currents. The average current measured in vehicle (0.1% DMSO) treated cells, Iv, was subtracted from the current for the test article, ITA, or from the corrector reference standard VX809 (3 uM ISTD. For replicate measurements, the average vehicle subtracted response for the test article, was normalized to the average vehicle subtracted inhibitor response of the reference corrector VX809 (3 μM). INSC=(ITA−IV)(ave)/(ISTD−IV)(ave) (Equation 1)
A second endpoint, for the equivalent current assay, evaluated was NAUC, the normalized area under the curve (AUC) measuring the response after addition of forskolin and VX770 to the time point right before the addition of the CFTR inhibitor. The AUC is effectively the average response multiplied by the duration of the response. The AUC of the test article, AUCTA was then corrected by subtracting the average vehicle response, AUCV,ave over the same time range, and normalized as for the inhibitor-sensitive current to the difference of the corrector reference standard VX809 (3 μM VX809r,ave and the vehicle response: NAUCTA=[AUCTA−AUCV,ave]/[AUCVx809r,ave−AUCV,ave] (Equation 2).
The normalized value for DMSO is 0.0 and for VX-809 alone is 1.0. Combinations of compounds with VX-809 that give normalized values greater than 1.0 show activity in the combination assay. A value of 2 means the test compound doubles the effect to VX-809 alone.
Experiments were run with a minimum of n=4 replicates per concentration. […]

T1 sequence (P13569 with tags, fused parts or gaps DEL508-508): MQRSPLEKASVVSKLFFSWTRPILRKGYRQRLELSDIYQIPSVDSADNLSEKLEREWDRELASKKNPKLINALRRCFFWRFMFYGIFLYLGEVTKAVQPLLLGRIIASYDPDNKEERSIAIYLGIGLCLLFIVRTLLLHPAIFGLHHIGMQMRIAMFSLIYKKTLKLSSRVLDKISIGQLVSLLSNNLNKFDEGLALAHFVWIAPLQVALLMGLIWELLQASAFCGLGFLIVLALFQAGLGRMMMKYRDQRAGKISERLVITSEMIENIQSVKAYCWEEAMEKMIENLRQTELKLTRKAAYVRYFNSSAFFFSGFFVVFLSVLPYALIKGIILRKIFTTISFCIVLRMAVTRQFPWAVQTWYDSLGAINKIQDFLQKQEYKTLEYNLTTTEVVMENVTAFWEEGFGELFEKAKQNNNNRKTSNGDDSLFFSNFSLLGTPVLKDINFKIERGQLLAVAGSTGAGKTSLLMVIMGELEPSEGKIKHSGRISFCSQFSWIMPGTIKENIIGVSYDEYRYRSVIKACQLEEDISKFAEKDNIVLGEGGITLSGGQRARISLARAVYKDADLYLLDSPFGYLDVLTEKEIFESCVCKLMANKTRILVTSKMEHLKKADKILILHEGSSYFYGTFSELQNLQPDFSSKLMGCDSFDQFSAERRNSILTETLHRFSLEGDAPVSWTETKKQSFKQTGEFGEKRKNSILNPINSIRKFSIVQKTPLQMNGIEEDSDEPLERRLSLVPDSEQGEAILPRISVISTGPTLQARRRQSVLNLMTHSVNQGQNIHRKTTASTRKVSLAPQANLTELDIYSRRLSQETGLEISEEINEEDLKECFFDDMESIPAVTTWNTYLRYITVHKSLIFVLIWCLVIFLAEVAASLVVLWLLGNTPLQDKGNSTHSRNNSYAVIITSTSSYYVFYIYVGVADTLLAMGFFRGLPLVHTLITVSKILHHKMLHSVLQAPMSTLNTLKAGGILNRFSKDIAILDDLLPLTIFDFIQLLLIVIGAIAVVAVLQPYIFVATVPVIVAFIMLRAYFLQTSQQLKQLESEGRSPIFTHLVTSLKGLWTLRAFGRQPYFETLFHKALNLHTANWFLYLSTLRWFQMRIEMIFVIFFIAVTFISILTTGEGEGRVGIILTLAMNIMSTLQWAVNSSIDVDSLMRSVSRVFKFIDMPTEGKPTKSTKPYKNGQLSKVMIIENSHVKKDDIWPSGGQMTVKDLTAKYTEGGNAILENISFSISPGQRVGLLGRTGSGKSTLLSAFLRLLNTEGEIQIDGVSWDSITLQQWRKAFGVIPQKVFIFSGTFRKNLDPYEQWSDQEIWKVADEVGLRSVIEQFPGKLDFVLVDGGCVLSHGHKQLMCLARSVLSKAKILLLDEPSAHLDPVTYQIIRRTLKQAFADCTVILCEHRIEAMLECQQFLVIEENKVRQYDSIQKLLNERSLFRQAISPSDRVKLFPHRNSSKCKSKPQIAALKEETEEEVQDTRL

For `O=C1C2C3C[C@H](O)CN3C3(C(=O)Nc4ccc(C(F)(F)F)cc43)C2C(=O)N1c1cc(Cl)cc(Cl)c1` (single isomer, unassigned) [Example 50], the “Nauc @ 3 μM” value was “++ (NAUC “++” refers to an observed NAUC 170-140% of positive control)” and the “Nauc @ 10 μM” value was “+ (NAUC “+” refers to an observed NAUC <140% of positive control)”.
`[2H]C12C(=O)N(c3cc(Cl)cc(OC)c3)C(=O)C1([2H])C1(C(=O)Nc3c(Cl)cc(Cl)cc31)N1C[C@@H](F)CC12` (stereo partly drawn) [Example 145] was tested, and the “Nauc @ 3 μM” value was “+ (NAUC “+” refers to an observed NAUC <140% of positive control)” and the “Nauc @ 10 μM” value was “+++ (NAUC “+++” refers to an observed NAUC >170% of positive control)”.
In the case of `O=C1C2C3CCCN3C3(C(=O)Nc4c(Cl)cc(Cl)cc43)C2C(=O)N1c1cccc(C(F)(F)F)n1` (stereo not drawn) [Example 251], the “Nauc @ 3 μM” value is reported as “+++ (NAUC “+++” refers to an observed NAUC >170% of positive control)” and the “Nauc @ 10 μM” value is reported as “+++ (NAUC “+++” refers to an observed NAUC >170% of positive control)”.
With `COc1ccccc1CC1NC2(C(=O)Nc3c(Cl)cc(Cl)cc32)C2C(=O)N(c3cc(Cl)cc(Cl)c3)C(=O)C12` (stereo not drawn) [Example 201] the “Nauc @ 3 μM” value was “+ (NAUC “+” refers to an observed NAUC <140% of positive control)” and the “Nauc @ 10 μM” value was “+++ (NAUC “+++” refers to an observed NAUC >170% of positive control)”.
`CC1(C)CC2C3C(=O)N(c4cc(Cl)cc(Cl)n4)C(=O)C3C3(C(=O)Nc4c(Cl)cc(Cl)cc43)N2C1` (stereo not drawn) [Example 129] was tested, and the “Nauc @ 3 μM” value was “++ (NAUC “++” refers to an observed NAUC 170-140% of positive control)” and the “Nauc @ 10 μM” value was “++ (NAUC “++” refers to an observed NAUC 170-140% of positive control)”.
For `O=C1C2C(Cc3ccccn3)NC3(C(=O)Nc4c(Cl)cc(Cl)cc43)C2C(=O)N1c1cc(Cl)cc(Cl)c1` (stereo not drawn) [Example 203], the “Nauc @ 3 μM” value was “++ (NAUC “++” refers to an observed NAUC 170-140% of positive control)” and the “Nauc @ 10 μM” value was “++ (NAUC “++” refers to an observed NAUC 170-140% of positive control)”.
For `O=C1C2C3CCCN3C3(C(=O)Nc4c(Cl)cc(Cl)cc43)C2C(=O)N1c1nccs1` (stereo not drawn) [Example 216], the “Nauc @ 3 μM” value was “++ (NAUC “++” refers to an observed NAUC 170-140% of positive control)” and the “Nauc @ 10 μM” value was “+ (NAUC “+” refers to an observed NAUC <140% of positive control)”.
For `CC(=O)O[C@H]1CC2C3C(=O)N(c4cc(Cl)cc(Cl)c4)C(=O)C3C3(C(=O)N(C(C)=O)c4c(Cl)cc(Cl)cc43)N2C1` (stereo partly drawn) [Example 69], the “Nauc @ 3 μM” value was “+++ (NAUC “+++” refers to an observed NAUC >170% of positive control)” and the “Nauc @ 10 μM” value was “+ (NAUC “+” refers to an observed NAUC <140% of positive control)”.
For `O=C1C2C3C[C@H](Cl)CN3C3(C(=O)Nc4c(Cl)cc(Cl)cc43)C2C(=O)N1c1cc(O)cc(Cl)c1` (stereo partly drawn) [Example 81], the “Nauc @ 3 μM” value was “+ (NAUC “+” refers to an observed NAUC <140% of positive control)” and the “Nauc @ 10 μM” value was “++ (NAUC “++” refers to an observed NAUC 170-140% of positive control)”.
With `O=C1C2C(Cl)(C(=O)N1c1cc(Cl)cc(Cl)c1)C1CCCN1C21C(=O)Nc2c(Cl)cc(Cl)cc21` (stereo not drawn) [Example 89] the “Nauc @ 3 μM” value was “+ (NAUC “+” refers to an observed NAUC <140% of positive control)” and the “Nauc @ 10 μM” value was “++ (NAUC “++” refers to an observed NAUC 170-140% of positive control)”.
In the case of `O=C1C2CN(c3ccccc3)C3(C(=O)Nc4c(Cl)cc(Cl)cc43)C2C(=O)N1c1cc(Cl)cc(Cl)c1` (stereo not drawn) [Example 209], the “Nauc @ 3 μM” value is reported as “+ (NAUC “+” refers to an observed NAUC <140% of positive control)” and the “Nauc @ 10 μM” value is reported as “+++ (NAUC “+++” refers to an observed NAUC >170% of positive control)”.
`O=C1C2C(c3ccccn3)NC3(C(=O)Nc4c(Cl)cc(Cl)cc43)C2C(=O)N1c1cc(Cl)cc(Cl)c1` (stereo not drawn) [Example 212] was tested, and the “Nauc @ 3 μM” value was “+ (NAUC “+” refers to an observed NAUC <140% of positive control)” and the “Nauc @ 10 μM” value was “++ (NAUC “++” refers to an observed NAUC 170-140% of positive control)”.
For `Cc1cccc(N2C(=O)C3C4CCCN4C4(C(=O)Nc5c(Cl)cc(Cl)cc54)C3C2=O)n1` (stereo not drawn) [Example 183], the “Nauc @ 3 μM” value was “++ (NAUC “++” refers to an observed NAUC 170-140% of positive control)” and the “Nauc @ 10 μM” value was “+ (NAUC “+” refers to an observed NAUC <140% of positive control)”.
With `O=C1C2C3CCCN3C3(C(=O)Nc4c(Cl)cc(Cl)cc43)C2C(=O)N1c1cncc(Cl)c1` (stereo not drawn) [Example 20] the “Nauc @ 3 μM” value was “+ (NAUC “+” refers to an observed NAUC <140% of positive control)” and the “Nauc @ 10 μM” value was “++ (NAUC “++” refers to an observed NAUC 170-140% of positive control)”.
`[2H]C12C(=O)N(c3cc(Cl)c(OC)c(Cl)c3)C(=O)C1([2H])C1(C(=O)Nc3c(Cl)cc(Cl)cc31)N1CC(C)(C)CC12` (stereo not drawn) [Example 149] was tested, and the “Nauc @ 3 μM” value was “+++ (NAUC “+++” refers to an observed NAUC >170% of positive control)” and the “Nauc @ 10 μM” value was “+++ (NAUC “+++” refers to an observed NAUC >170% of positive control)”.
With `CC1CC2C3C(=O)N(c4cc(Cl)cc(Cl)c4)C(=O)C3C3(C(=O)Nc4c(Cl)cc(Cl)cc43)N2C1` (stereo not drawn) [Example 63] the “Nauc @ 3 μM” value was “+++ (NAUC “+++” refers to an observed NAUC >170% of positive control)” and the “Nauc @ 10 μM” value was “+++ (NAUC “+++” refers to an observed NAUC >170% of positive control)”.
`O=C1C2C(C(=O)N1c1cc(Cl)cc(Cl)c1)C1(NC23CC3)C(=O)Nc2c(Cl)cc(Cl)cc21` (stereo not drawn) [Example 210] was tested, and the “Nauc @ 3 μM” value was “+ (NAUC “+” refers to an observed NAUC <140% of positive control)” and the “Nauc @ 10 μM” value was “++ (NAUC “++” refers to an observed NAUC 170-140% of positive control)”.
In the case of `O=C1C2C3C[C@H](O)CN3C3(C(=O)Nc4c(Cl)cc(Cl)cc43)C2C(=O)N1c1cc(Cl)cc(Cl)n1` (stereo partly drawn) [Example 59], the “Nauc @ 3 μM” value is reported as “+ (NAUC “+” refers to an observed NAUC <140% of positive control)” and the “Nauc @ 10 μM” value is reported as “+++ (NAUC “+++” refers to an observed NAUC >170% of positive control)”.
`COc1cccc(N2C(=O)C3C4C[C@H](Cl)CN4C4(C(=O)Nc5c(Cl)cc(Cl)cc54)C3C2=O)c1` (stereo partly drawn) [Example 113] was tested, and the “Nauc @ 3 μM” value was “+ (NAUC “+” refers to an observed NAUC <140% of positive control)” and the “Nauc @ 10 μM” value was “++ (NAUC “++” refers to an observed NAUC 170-140% of positive control)”.
In the case of `O=C1C2C(Cc3ccccc3O)NC3(C(=O)Nc4c(Cl)cc(Cl)cc43)C2C(=O)N1c1cc(Cl)cc(Cl)c1` (stereo not drawn) [Example 188], the “Nauc @ 3 μM” value is reported as “+ (NAUC “+” refers to an observed NAUC <140% of positive control)” and the “Nauc @ 10 μM” value is reported as “+++ (NAUC “+++” refers to an observed NAUC >170% of positive control)”.
`C[C@]1(O)CC2C3C(=O)N(c4cccc(C(F)(F)F)n4)C(=O)C3C3(C(=O)Nc4c(Cl)cc(Cl)cc43)N2C1` (stereo partly drawn) [Example 253] was tested, and the “Nauc @ 3 μM” value was “+ (NAUC “+” refers to an observed NAUC <140% of positive control)” and the “Nauc @ 10 μM” value was “++ (NAUC “++” refers to an observed NAUC 170-140% of positive control)”.
In the case of `O=C1C2C(Cc3ccc(F)cc3)NC3(C(=O)Nc4c(Cl)cc(Cl)cc43)C2C(=O)N1c1cc(Cl)cc(Cl)c1` (stereo not drawn) [Example 196], the “Nauc @ 3 μM” value is reported as “+ (NAUC “+” refers to an observed NAUC <140% of positive control)” and the “Nauc @ 10 μM” value is reported as “++ (NAUC “++” refers to an observed NAUC 170-140% of positive control)”.
`N#C[C@H]1CC2C3C(=O)N(c4cc(Cl)cc(Cl)c4)C(=O)C3C3(C(=O)Nc4c(Cl)cc(Cl)cc43)N2C1` (stereo partly drawn) [Example 68] was tested, and the “Nauc @ 3 μM” value was “+ (NAUC “+” refers to an observed NAUC <140% of positive control)” and the “Nauc @ 10 μM” value was “+++ (NAUC “+++” refers to an observed NAUC >170% of positive control)”.
For `CC1(C)CC2C3C(=O)N(c4cc(Cl)cc(Cl)n4)C(=O)C3C3(C(=O)Nc4c(Cl)cc(Cl)cc43)N2C1` (stereo not drawn) [Example 176], the “Nauc @ 3 μM” value was “++ (NAUC “++” refers to an observed NAUC 170-140% of positive control)” and the “Nauc @ 10 μM” value was “++ (NAUC “++” refers to an observed NAUC 170-140% of positive control)”.
